Laboratory results reported in paper PMC12741935 (Alzheimer's & Dementia, 2025).

System: brain proteome
Assay: Brain proteomics (DIA LC-MS/MS) after chronic NVS-PAK1-1 100 mg/kg BID PO vs vehicle in 5xFAD mice
Assay type: in vivo
Conditions: for NES (gene set enrichment), NVS-PAK1-1 vs vehicle: Young Female
Procedure: A total of 91 brain samples were prepared from mice in this study and analyzed by mass spectrometry proteomics. One third of the mixed‐chopped left hemisphere tissue was homogenized in 8 M urea lysis buffer (8 M urea, 10 mM Tris, 100 mM NaH2PO4, pH 8.5) with HALT protease and phosphatase inhibitor cocktail (Thermo Fisher) and sonicated for three cycles consisting of 5 seconds of active sonication at 30% amplitude, followed by 15 seconds on ice. Samples were then centrifuged for 5 minutes at 15,000 g and the supernatant was transferred to a new tube. Protein concentration was determined by bicinchoninic acid (BCA) assay (Pierce). For protein digestion, 200 µg of each sample was aliquoted and volumes normalized with additional lysis buffer. Samples were reduced with 5 mM DTT at room temperature for 30 minutes, followed by 10 mM iodoacetamide (IAA) alkylation in the dark for another 30 minutes. Lysyl endopeptidase (Wako) at 1:25 (w/w) was added, and digestion allowed to proceed overnight. Samples were then 7‐fold diluted with 50 mM ammonium bicarbonate. Trypsin (Promega) was then added at 1:25 (w/w) and digestion proceeded overnight. The peptide solutions were acidified to a final concentration of 1% (vol/vol) FA and 0.1% (vol/vol) TFA and desalted with a 10 mg HLB column (Oasis). Each HLB column was first rinsed with 1 mL of methanol, washed with 1 mL 50% (vol/vol) acetonitrile (ACN), and equilibrated with 2 × 1 mL 0.1% (vol/vol) TFA. The samples were then loaded onto the column and washed with 2 × 1 mL 0.1% (vol/vol) TFA. Elution was performed with 0.5 mL 50% (vol/vol) ACN. Samples were split into 50 µL and 400 µL aliquots. Residuals from all samples were combined to create a global internal standard pool.
Samples were resuspended in an equal volume of loading buffer (0.1% FA, 0.03% TFA, 1% ACN) and analyzed by LC‐MS/MS. Peptide eluents (1 µg) were separated on a Water's CSH (15 cm × 150 µM internal diameter [ID] with 1.7 µm CSH resin) by a Dionex Ultimate 3000 RSLCnano (Thermo Fisher). Buffer A was water with 0.1% (vol/vol) formic acid, and buffer B was 80% (vol/vol) acetonitrile in water with 0.1% (vol/vol) FA. Elution was performed over a 30 minute gradient. The gradient was from 1% to 99% solvent B. Peptides were monitored on an Orbitrap Fusion Lumos mass spectrometer (Thermo Fisher). Each cycle consisted of one full scan (MS1) performed with an m/z range of 380 to 985 at a 60,000 resolution at standard settings and 30 data independent scans (DIA) in 1.5 seconds. The higher energy collision‐induced dissociation (HCD) tandem scans were collected at 30% collision energy with an isolation of 10 m/z, a resolution of 15,000, an AGC setting of 200% normalized AGC target, and a maximum injection time set to 40 ms.
Raw data files were converted to mzML format for downstream processing using ThermoRawFilerParser v.1.4.4.[30] The data were processed using Data‐Independent Acquisition by Neural Network (DIA‐NN) v.1.9.1.[31] A spectral library was generated using all canonical mouse proteins from UniProt and SwissProt (accessed September 24, 2024) and contaminants from the Common Repository of Adventitious Proteins (cRAP) database [https://www.thegpm.org/crap/]; these contaminant proteins were excluded from normalization and downstream analysis. DIA‐NN was run using parameters specified as follows: precursor charge was set from 1 to 4 and precursor m/z was set from 200 to 5000. Enzyme digestion was set to strict trypsin with 1 allowed missed cleavage, peptide length was set from 7 to 50, and peptide m/z was set from 150 to 3000. The maximum number of variable modifications was set to 3 and methionine oxidation was allowed as a variable modification. Cysteine carbamidomethylation was allowed as a fixed modification. MS1 and MS2 mass accuracy (in ppm) were set using autodetect and the scan window was set using autodetect. The false discovery rate (FDR) threshold was set to 1%. […]

CC(C)NC(=O)N1CC[C@H](NC2=Nc3cc(F)ccc3N(CC(F)F)c3ccc(Cl)cc32)C1 [NVS‐PAK1‐1, (S)‐3‐([2‐chloro‐5‐(2,2‐difluoroethyl)‐8‐fluoro‐5H‐dibenzo[b,e][1,4]diazepin‐11‐yl]amino)‐N‐isopropylpyrrolidine‐1‐carboxamide]
logFC, FAD5X_A_tx vs FAD5X_B_veh (ATP8, Aged M 5xFAD brain): -0.1292
logFC_NVS.PAK1.1_vs_vehicle (Acat2, Young F 5xFAD brain): -0.07095
logFC_NVS.PAK1.1_vs_vehicle (Acly, Young F 5xFAD brain): -0.0659
logFC_NVS.PAK1.1_vs_vehicle (Acly, Young M 5xFAD brain): -0.07659
logFC_NVS.PAK1.1_vs_vehicle (Agk, Young F 5xFAD brain): 0.08371
logFC_NVS.PAK1.1_vs_vehicle (Agl, Young F 5xFAD brain): -0.0869
logFC_NVS.PAK1.1_vs_vehicle (Aldh1l1, Young F 5xFAD brain): -0.1253
logFC_NVS.PAK1.1_vs_vehicle (Anxa6, Young M 5xFAD brain): -0.118
logFC_NVS.PAK1.1_vs_vehicle (App, Young F 5xFAD brain): -0.2576
logFC_NVS.PAK1.1_vs_vehicle (Armcx5, Young M 5xFAD brain): 0.3268
logFC_NVS.PAK1.1_vs_vehicle (Atl2, Aged F 5xFAD brain): -0.08745
logFC_NVS.PAK1.1_vs_vehicle (Atp2b4, Young M 5xFAD brain): 0.1099
logFC_NVS.PAK1.1_vs_vehicle (Atp5if1, Aged F 5xFAD brain): -0.5225
logFC_NVS.PAK1.1_vs_vehicle (Calr, Young F 5xFAD brain): -0.07235
logFC_NVS.PAK1.1_vs_vehicle (Cep170b, Young M 5xFAD brain): 0.1293
logFC_NVS.PAK1.1_vs_vehicle (Cfap61, Young F 5xFAD brain): -0.4846
logFC_NVS.PAK1.1_vs_vehicle (Cfl2, Young F 5xFAD brain): 0.1353
logFC_NVS.PAK1.1_vs_vehicle (Chordc1, Young F 5xFAD brain): -0.1408
logFC_NVS.PAK1.1_vs_vehicle (Ciapin1, Young M 5xFAD brain): -0.1789
logFC_NVS.PAK1.1_vs_vehicle (Cops5, Aged M 5xFAD brain): 0.1116
logFC_NVS.PAK1.1_vs_vehicle (Cox7a2, Aged F 5xFAD brain): -0.07809
logFC_NVS.PAK1.1_vs_vehicle (Dctn3, Young F 5xFAD brain): -0.07573
logFC_NVS.PAK1.1_vs_vehicle (Echdc1, Young F 5xFAD brain): -0.211
logFC_NVS.PAK1.1_vs_vehicle (Eef1b, Young F 5xFAD brain): -0.1102
logFC_NVS.PAK1.1_vs_vehicle (Eef2, Young F 5xFAD brain): -0.07944
logFC_NVS.PAK1.1_vs_vehicle (Ehd3, Aged M 5xFAD brain): 0.04696
logFC_NVS.PAK1.1_vs_vehicle (Eif1, Young F 5xFAD brain): -0.1062
logFC_NVS.PAK1.1_vs_vehicle (Elfn2, Aged M 5xFAD brain): -0.27
logFC_NVS.PAK1.1_vs_vehicle (Fasn, Young F 5xFAD brain): -0.08056
logFC_NVS.PAK1.1_vs_vehicle (Fdps.1, Young F 5xFAD brain): -0.1222
logFC_NVS.PAK1.1_vs_vehicle (Fn3krp, Aged M 5xFAD brain): 0.1203
NES (gene set enrichment), NVS-PAK1-1 vs vehicle (GO:0005740 mitochondrial envelope): 2.24
NES (gene set enrichment), NVS-PAK1-1 vs vehicle (GO:0005743 mitochondrial inner membrane): 2.303
NES (gene set enrichment), NVS-PAK1-1 vs vehicle (GO:0019866 organelle inner membrane): 2.289
NES (gene set enrichment), NVS-PAK1-1 vs vehicle (GO:0031966 mitochondrial membrane): 2.233
logFC_NVS.PAK1.1_vs_vehicle (Gap43, Young F 5xFAD brain): 0.1885
logFC_NVS.PAK1.1_vs_vehicle (Gnb1.1, Aged F 5xFAD brain): -0.6461
logFC_NVS.PAK1.1_vs_vehicle (Gng2, Young M 5xFAD brain): 0.102
logFC, FAD5X_A_tx vs FAD5X_B_veh (HC;Ighg2b, Aged M 5xFAD brain): 0.3576
logFC_NVS.PAK1.1_vs_vehicle (Hnrnpf, Aged F 5xFAD brain): -0.0585
logFC_NVS.PAK1.1_vs_vehicle (Hprt1, Young F 5xFAD brain): 0.09623
logFC_NVS.PAK1.1_vs_vehicle (Hsp90ab1, Young F 5xFAD brain): -0.08556
logFC_NVS.PAK1.1_vs_vehicle (Hsp90b1, Young F 5xFAD brain): -0.1385
logFC_NVS.PAK1.1_vs_vehicle (Hspa8.1, Young F 5xFAD brain): -0.05148
logFC_NVS.PAK1.1_vs_vehicle (Hsph1, Young F 5xFAD brain): -0.0893
logFC_NVS.PAK1.1_vs_vehicle (Idh1, Young F 5xFAD brain): -0.08685
logFC_NVS.PAK1.1_vs_vehicle (Idi1, Young F 5xFAD brain): -0.1582
logFC_NVS.PAK1.1_vs_vehicle (Kctd16, Young M 5xFAD brain): 0.1263
logFC_NVS.PAK1.1_vs_vehicle (Klc1, Young F 5xFAD brain): -0.06729
logFC_NVS.PAK1.1_vs_vehicle (Lcmt1, Young F 5xFAD brain): -0.08416
logFC_NVS.PAK1.1_vs_vehicle (Lcp1, Young F 5xFAD brain): -0.2692
logFC_NVS.PAK1.1_vs_vehicle (Lrfn4, Aged F 5xFAD brain): 0.3404
logFC_NVS.PAK1.1_vs_vehicle (Ly6h, Young M 5xFAD brain): 0.08528
logFC_NVS.PAK1.1_vs_vehicle (Map1lc3a, Young M 5xFAD brain): 0.1055
logFC_NVS.PAK1.1_vs_vehicle (Map7d2, Aged M 5xFAD brain): 0.1103
logFC_NVS.PAK1.1_vs_vehicle (Mark4, Young F 5xFAD brain): 0.2384
logFC_NVS.PAK1.1_vs_vehicle (Mib2, Aged M 5xFAD brain): -0.4263
logFC_NVS.PAK1.1_vs_vehicle (Mipep, Aged F 5xFAD brain): 1.596
logFC_NVS.PAK1.1_vs_vehicle (Myh10, Aged F 5xFAD brain): -1.404
logFC_NVS.PAK1.1_vs_vehicle (Mylk, Aged M 5xFAD brain): -1.455
logFC_NVS.PAK1.1_vs_vehicle (Nck2, Aged M 5xFAD brain): 0.1477
logFC_NVS.PAK1.1_vs_vehicle (Nherf1, Young F 5xFAD brain): -0.1106
logFC_NVS.PAK1.1_vs_vehicle (Nmd3, Young F 5xFAD brain): -0.95
logFC_NVS.PAK1.1_vs_vehicle (Nmt1, Young F 5xFAD brain): -0.1011
logFC_NVS.PAK1.1_vs_vehicle (Nomo1, Young F 5xFAD brain): -0.1733
logFC_NVS.PAK1.1_vs_vehicle (Nrdc, Aged M 5xFAD brain): -0.1746
logFC_NVS.PAK1.1_vs_vehicle (Ntm, Young M 5xFAD brain): 0.1007
logFC_NVS.PAK1.1_vs_vehicle (Pkm, Aged M 5xFAD brain): -0.04674
logFC_NVS.PAK1.1_vs_vehicle (Plpp3, Young F 5xFAD brain): -0.1143
logFC_NVS.PAK1.1_vs_vehicle (Plxna4, Young F 5xFAD brain): 0.1065
logFC_NVS.PAK1.1_vs_vehicle (Pnpo, Young F 5xFAD brain): 0.2
logFC_NVS.PAK1.1_vs_vehicle (Ppp1r21, Young F 5xFAD brain): -0.1088
logFC_NVS.PAK1.1_vs_vehicle (Ptgds, Young F 5xFAD brain): -0.128
logFC_NVS.PAK1.1_vs_vehicle (RTRAF, Young F 5xFAD brain): -0.06356
logFC_NVS.PAK1.1_vs_vehicle (Rab27b, Young F 5xFAD brain): 0.1779
logFC_NVS.PAK1.1_vs_vehicle (Rab33a, Aged M 5xFAD brain): -0.2639
logFC_NVS.PAK1.1_vs_vehicle (Rap2a, Young F 5xFAD brain): 0.09042
logFC_NVS.PAK1.1_vs_vehicle (Rasgef1a, Aged M 5xFAD brain): 0.8766
logFC_NVS.PAK1.1_vs_vehicle (Rbm4b, Aged M 5xFAD brain): -0.3664
logFC_NVS.PAK1.1_vs_vehicle (Robo2, Young M 5xFAD brain): 0.2982
logFC_NVS.PAK1.1_vs_vehicle (Rock2, Aged F 5xFAD brain): 0.0515
logFC_NVS.PAK1.1_vs_vehicle (Rpl34, Young F 5xFAD brain): -0.09945
logFC_NVS.PAK1.1_vs_vehicle (Rps3, Young F 5xFAD brain): -0.04356
logFC_NVS.PAK1.1_vs_vehicle (S100a1, Young F 5xFAD brain): -0.119
logFC_NVS.PAK1.1_vs_vehicle (Sec14l2, Young F 5xFAD brain): -0.1884
logFC_NVS.PAK1.1_vs_vehicle (Senp3, Young M 5xFAD brain): -0.3344
logFC_NVS.PAK1.1_vs_vehicle (Septin2, Young F 5xFAD brain): -0.1026
logFC_NVS.PAK1.1_vs_vehicle (Septin3, Young F 5xFAD brain): 0.07371
logFC_NVS.PAK1.1_vs_vehicle (Serpinb6, Young F 5xFAD brain): -0.1362
logFC_NVS.PAK1.1_vs_vehicle (Sgip1, Young M 5xFAD brain): 0.06159
logFC_NVS.PAK1.1_vs_vehicle (Snw1, Aged F 5xFAD brain): -0.2022
logFC_NVS.PAK1.1_vs_vehicle (Spag9, Aged F 5xFAD brain): -0.08904
logFC_NVS.PAK1.1_vs_vehicle (Stom, Aged F 5xFAD brain): -0.4369
logFC_NVS.PAK1.1_vs_vehicle (Stom, Young M 5xFAD brain): -0.67
logFC_NVS.PAK1.1_vs_vehicle (Stxbp5, Aged M 5xFAD brain): -0.08024
logFC_NVS.PAK1.1_vs_vehicle (Syngr1, Young M 5xFAD brain): 0.07489
logFC_NVS.PAK1.1_vs_vehicle (Sypl1, Aged M 5xFAD brain): 0.2577
logFC_NVS.PAK1.1_vs_vehicle (Tbc1d24, Young F 5xFAD brain): 0.08048
logFC_NVS.PAK1.1_vs_vehicle (Tkfc, Aged M 5xFAD brain): -0.1852
logFC_NVS.PAK1.1_vs_vehicle (Tom1l2, Aged M 5xFAD brain): 0.07172
logFC_NVS.PAK1.1_vs_vehicle (Txndc16, Young M 5xFAD brain): -1.405
logFC_NVS.PAK1.1_vs_vehicle (Usp54, Aged M 5xFAD brain): 2.652
logFC_NVS.PAK1.1_vs_vehicle (Vasp, Young F 5xFAD brain): 0.6308
logFC_NVS.PAK1.1_vs_vehicle (Vps33b, Aged M 5xFAD brain): -0.1328
logFC_NVS.PAK1.1_vs_vehicle (Wasf3, Young M 5xFAD brain): 0.12
logFC_NVS.PAK1.1_vs_vehicle (Zfp967;Zfp968, Young F 5xFAD brain): -1.398
